Target: T1, human NaV1.8 (Homo sapiens, UniProt Q9Y5Y9)
T1 construct: The following NaV1.8 recombinant cell line was used for recordings: HEK-NaV1.8 (NM 006514.1); expressed in transfected cells; host or cells: HEK (recombinant cell line HEK-NaV1.8)
Experiment: Electrophysiology: automated whole-cell voltage-clamp (patch clamp, Qube384) recordings of sodium currents in HEK-NaV1.8 cells
Format: cell-based
Conditions: potency data either taken from inactivated or resting state, read-out: Potency category (human NaV1.8 IC50)
Description: Electrophysiology: Voltage-Clamp Recordings
The following NaV1.8 recombinant cell line was used for recordings: HEK-NaV1.8 (NM 006514.1) with in (NM 018400.3).
Sodium currents were measured using the patch clamp technique in the whole-cell configuration using the Qube384 (Sophion A/S, Copenhagen, Denmark) automated voltage clamp platform. “Multi hole” plates were used for the cell line expressing NaV1.8 while “single hole” plates were used for the recombinant cell lines expressing the other subtypes. Appropriate filters (for minimum seal resistance and minimum current size) and series resistance compensation (for high quality sodium channel recordings) were applied. Data was collected at ambient room temperature.
The recording extracellular solution contained (in mM): NaCl 145 mM, KCl 4 mM, CaCl2 2 mM, MgCl2 1 mM, HEPES 10 mM, Glucose 10 mM, pH 7.4 (NaOH). The intracellular recording solution contained (in mM): CsF 120 mM, CsCl 20 mM, NaCl 10 mM, EGTA 10 mM, HEPES 10 mM, pH 7.2 (CsOH). Currents were recorded at 25 kHz sampling frequency and filtered at 5 kHz. Series resistance compensation was applied at 65%.
Vehicle (VEH) is the control condition where cells are exposed to 0.3% DMSO without compound. All runs include VEH controls being exposed to the same voltage protocols to assess non-compound related phenomena such as run down and then used to isolate compound dependent effects on currents.
To check for state-dependence inhibition, the following voltage-sequence was applied every 20 seconds:
From a resting membrane potential of −120 mV, the first test pulse (P1; 20 ms to −10 mV) was applied to check for channels in the Resting State followed by a brief recovery (20 ms to −120 mV), then holding the membrane voltage to V112 (4 seconds at voltage to obtain half the channel at Rest and half Inactivated) with a subsequent second test pulse (P2; 20 ms to −10 mV) to check for channels in the Inactivated State, followed by another brief recovery (20 ms to −120 mV) and a final third test pulse (P3; 20 ms to −10 mV) to check for recovered channels.
To check for frequency-dependent inhibition, a 10 Hz protocol and a 20 Hz protocol were applied; namely,
From a resting membrane potential of −120 mV, 40-pulses (10 ms to −10 mV) was applied at 10 Hz (at 100 ms between pulses) and then at 20 Hz (at 50 ms between pulses).
Each parameter was recorded (P1, P2, P3, P40 from 10 Hz and P40 from 20 Hz) during a control period (lasting 5 minutes) when establishing the baseline and during compound period (lasting ˜12 minutes) when test compound (or vehicle) was applied. For each parameter, the value at the end of the compound period was normalized to the vehicle baseline; as follows
To adjust for any variance in the Na^+ current signal during the compound period (owing to cumulative inactivation independent of compound or shifts in biophysics over time), a dedicated segment of the recording wells in each 384 plate were dedicated to having only vehicle exposure. These vehicle-only recordings were used to correct for any apparent “run-up” or “run-down” in the experiment.
The adjusted inhibition was calculated as follows: […]
Percent inhibition was determined and IC50 values were calculated using a 4 parameter logistic model within XLFit Software (IDBS, Boston MA):
[formula] where A and B are the maximal and minimum inhibition respectively, C is the IC50 concentration and D is the (Hill) slope.
The potency data was either taken from inactivated or resting state.

T1 sequence (Q9Y5Y9 whole entry): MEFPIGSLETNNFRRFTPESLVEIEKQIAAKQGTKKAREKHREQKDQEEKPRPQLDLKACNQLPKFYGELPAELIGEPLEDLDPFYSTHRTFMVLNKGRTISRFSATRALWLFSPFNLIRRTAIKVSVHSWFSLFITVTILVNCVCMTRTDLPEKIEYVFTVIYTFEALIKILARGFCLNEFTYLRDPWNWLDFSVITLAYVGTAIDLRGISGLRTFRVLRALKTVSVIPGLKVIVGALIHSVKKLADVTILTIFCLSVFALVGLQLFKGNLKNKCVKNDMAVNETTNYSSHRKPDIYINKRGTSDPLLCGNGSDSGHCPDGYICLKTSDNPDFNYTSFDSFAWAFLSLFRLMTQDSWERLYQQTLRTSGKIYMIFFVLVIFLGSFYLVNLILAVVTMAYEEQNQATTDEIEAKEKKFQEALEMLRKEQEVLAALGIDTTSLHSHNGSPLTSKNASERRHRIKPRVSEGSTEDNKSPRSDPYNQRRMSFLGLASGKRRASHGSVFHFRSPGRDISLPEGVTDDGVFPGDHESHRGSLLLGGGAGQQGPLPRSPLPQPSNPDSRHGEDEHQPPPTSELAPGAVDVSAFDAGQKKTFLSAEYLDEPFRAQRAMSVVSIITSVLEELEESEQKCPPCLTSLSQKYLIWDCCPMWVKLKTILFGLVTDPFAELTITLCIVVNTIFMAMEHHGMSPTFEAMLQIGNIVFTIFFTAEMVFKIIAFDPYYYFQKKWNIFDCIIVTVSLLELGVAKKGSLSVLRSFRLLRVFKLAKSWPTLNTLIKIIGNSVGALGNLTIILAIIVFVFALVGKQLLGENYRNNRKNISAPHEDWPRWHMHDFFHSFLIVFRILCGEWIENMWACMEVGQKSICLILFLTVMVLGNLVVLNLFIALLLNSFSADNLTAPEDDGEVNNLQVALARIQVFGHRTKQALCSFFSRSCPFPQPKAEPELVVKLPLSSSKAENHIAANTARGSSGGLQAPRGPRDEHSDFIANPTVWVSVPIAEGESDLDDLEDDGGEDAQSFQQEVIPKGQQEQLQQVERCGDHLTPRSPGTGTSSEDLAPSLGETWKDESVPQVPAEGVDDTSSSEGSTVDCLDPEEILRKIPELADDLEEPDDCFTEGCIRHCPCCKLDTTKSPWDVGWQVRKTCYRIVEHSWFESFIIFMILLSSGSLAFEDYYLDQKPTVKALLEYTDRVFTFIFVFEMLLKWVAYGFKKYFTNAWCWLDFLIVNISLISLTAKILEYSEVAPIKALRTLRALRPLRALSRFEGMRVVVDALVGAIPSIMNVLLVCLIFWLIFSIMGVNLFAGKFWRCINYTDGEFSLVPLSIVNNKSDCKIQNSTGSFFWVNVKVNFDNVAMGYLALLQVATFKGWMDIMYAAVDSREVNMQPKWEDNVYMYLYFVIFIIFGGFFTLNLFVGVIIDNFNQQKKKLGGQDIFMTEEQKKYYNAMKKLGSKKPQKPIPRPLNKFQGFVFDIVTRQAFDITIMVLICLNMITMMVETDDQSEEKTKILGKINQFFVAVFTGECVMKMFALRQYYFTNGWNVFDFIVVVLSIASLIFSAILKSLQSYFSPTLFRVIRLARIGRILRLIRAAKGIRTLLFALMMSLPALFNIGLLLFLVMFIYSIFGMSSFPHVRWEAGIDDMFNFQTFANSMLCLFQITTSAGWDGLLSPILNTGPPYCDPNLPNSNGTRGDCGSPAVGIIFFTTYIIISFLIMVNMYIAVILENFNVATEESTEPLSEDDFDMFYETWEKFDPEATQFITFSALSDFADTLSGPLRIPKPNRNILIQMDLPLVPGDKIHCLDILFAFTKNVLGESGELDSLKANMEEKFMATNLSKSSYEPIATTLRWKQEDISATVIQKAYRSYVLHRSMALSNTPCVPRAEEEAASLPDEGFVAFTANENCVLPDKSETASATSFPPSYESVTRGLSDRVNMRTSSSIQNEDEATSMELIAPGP
T1 sequence (Q9NY72 23-215 partner): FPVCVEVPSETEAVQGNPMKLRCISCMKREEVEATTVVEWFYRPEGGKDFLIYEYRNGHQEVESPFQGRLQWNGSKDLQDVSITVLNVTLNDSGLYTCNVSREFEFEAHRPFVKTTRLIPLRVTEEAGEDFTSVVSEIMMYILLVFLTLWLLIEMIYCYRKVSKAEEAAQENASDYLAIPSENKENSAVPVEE

Structure (SMILES)	IC50
NC(=O)c1cc(NC(=O)c2c(C(F)(F)F)c(C3CC3)nn2CC2CC(C(F)F)C2)ccn1 (single isomer, unassigned) [SC-221b, 4-(3-cyclopropyl-1-((3-(difluoromethyl)cyclobutyl)methyl)-4-(trifluoromethyl)-1H-pyrazole-5-carboxamido)picolinamide]	≤ 100 nM
Cc1c(C(F)(F)F)nn(CC2CCC(F)(F)C2)c1C(=O)Nc1ccnc(S(N)(=O)=O)c1 (single isomer, unassigned) [SC-254a]	≤ 100 nM
Cc1c(C(F)(F)F)nn(CC2CCC(F)(F)C2)c1C(=O)Nc1ccnc(S(N)(=O)=O)c1 (single isomer, unassigned) [SC-254b]	≤ 100 nM
NC(=O)c1cc(NC(=O)c2c(C(F)(F)F)c(C3CC3)nn2CC2CCCCO2)ccn1 (single isomer, unassigned) [SC-258a]	≤ 100 nM
NC(=O)c1cc(NC(=O)c2c(C(F)(F)F)c(C3CC3)nn2CC2CCCCO2)ccn1 (single isomer, unassigned) [SC-258b]	≤ 100 nM
CS(=O)(=O)c1cc(NC(=O)c2c(C(F)(F)F)c(C3CC3)nn2CC2CCCCO2)ccn1 (single isomer, unassigned) [SC-259a]	≤ 100 nM
CS(=O)(=O)c1cc(NC(=O)c2c(C(F)(F)F)c(C3CC3)nn2CC2CCCCO2)ccn1 (single isomer, unassigned) [SC-259b]	≤ 100 nM
COc1c(C(C)(F)F)nn(CC2CCC(F)(F)C2)c1C(=O)Nc1ccnc(C(N)=O)c1 (single isomer, unassigned) [SC-271a]	100 to 1000 nM
COc1c(C(C)(F)F)nn(CC2CCC(F)(F)C2)c1C(=O)Nc1ccnc(C(N)=O)c1 (single isomer, unassigned) [SC-271b]	100 to 1000 nM
CS(=O)(=O)c1cc(NC(=O)c2c(C(F)(F)F)c(C3CC3)nn2CC2CCC(F)(F)C2)ccn1 (single isomer, unassigned) [SC-277a]	≤ 100 nM
CS(=O)(=O)c1cc(NC(=O)c2c(C(F)(F)F)c(C3CC3)nn2CC2CCC(F)(F)C2)ccn1 (single isomer, unassigned) [SC-277b]	≤ 100 nM
Cc1c(C(F)(F)C(F)(F)F)nn(CC2CCC2(F)F)c1C(=O)Nc1ccnc(C(N)=O)c1 (single isomer, unassigned) [SC-278a]	≤ 100 nM
Cc1c(C(F)(F)C(F)(F)F)nn(CC2CCC2(F)F)c1C(=O)Nc1ccnc(C(N)=O)c1 (single isomer, unassigned) [SC-278b]	≤ 100 nM
NC(=O)c1cc(NC(=O)c2c(C(F)(F)F)c(C3CC3)nn2CC2CC2(F)F)ccn1 (single isomer, unassigned) [SC-279a]	100 to 1000 nM
NC(=O)c1cc(NC(=O)c2c(C(F)(F)F)c(C3CC3)nn2CC2CC2(F)F)ccn1 (single isomer, unassigned) [SC-279b]	100 to 1000 nM
COC1CC(Cn2nc(C3CC3)c(C(F)(F)F)c2C(=O)Nc2ccnc(C(N)=O)c2)C1 (single isomer, unassigned) [SC-281a]	100 to 1000 nM
COC1CC(Cn2nc(C3CC3)c(C(F)(F)F)c2C(=O)Nc2ccnc(C(N)=O)c2)C1 (single isomer, unassigned) [SC-281b]	100 to 1000 nM
NC(=O)c1cc(NC(=O)c2c(C(F)(F)F)c(C3CC3)nn2C[C@@H]2CC[C@H](C(F)(F)F)O2)ccn1 (single isomer, unassigned) [SC-284a]	≤ 100 nM
NC(=O)c1cc(NC(=O)c2c(C(F)(F)F)c(C3CC3)nn2C[C@@H]2CC[C@H](C(F)(F)F)O2)ccn1 (single isomer, unassigned) [SC-284b]	≤ 100 nM

Structure (SMILES)	IC50
C[C@@H]1CC[C@H](Cn2nc(C3CC3)c(C(F)(F)F)c2C(=O)Nc2ccnc(C(N)=O)c2)O1 (single isomer, unassigned) [SC-286a]	100 to 1000 nM
C[C@@H]1CC[C@H](Cn2nc(C3CC3)c(C(F)(F)F)c2C(=O)Nc2ccnc(C(N)=O)c2)O1 (single isomer, unassigned) [SC-286b]	100 to 1000 nM
NC(=O)c1cc(NC(=O)c2c(C(F)(F)F)c(C3CC3)nn2CC2CC(F)(F)C2(F)F)ccn1 (single isomer, unassigned) [SC-291a]	≤ 100 nM
NC(=O)c1cc(NC(=O)c2c(C(F)(F)F)c(C3CC3)nn2CC2CC(F)(F)C2(F)F)ccn1 (single isomer, unassigned) [SC-291b]	≤ 100 nM
Cc1c(C(C)(F)F)nn(CC2CCC(F)(F)C2)c1C(=O)Nc1cccc(S(N)(=O)=O)c1 (single isomer, unassigned) [SC-296a]	≤ 100 nM
Cc1c(C(C)(F)F)nn(C[C@H]2CCC(F)(F)C2)c1C(=O)Nc1cccc(S(N)(=O)=O)c1 (single isomer, unassigned) [SC-296b]	≤ 100 nM
Cc1c(C(C)(F)F)nn(CC2(C)CCCCO2)c1C(=O)Nc1ccnc(S(N)(=O)=O)c1 (single isomer, unassigned) [SC-312a]	100 to 1000 nM
Cc1c(C(C)(F)F)nn(C[C@@]2(C)CCCCO2)c1C(=O)Nc1ccnc(S(N)(=O)=O)c1 (single isomer, unassigned) [SC-312b]	100 to 1000 nM
Cc1c(C(C)(F)F)nn(C[C@@H]2CC[C@H]2C(F)(F)F)c1C(=O)Nc1ccnc(C(N)=O)c1 (single isomer, unassigned) [SC-315a]	≤ 100 nM
Cc1c(C(C)(F)F)nn(C[C@@H]2CC[C@H]2C(F)(F)F)c1C(=O)Nc1ccnc(C(N)=O)c1 (single isomer, unassigned) [SC-315b]	≤ 100 nM
Cc1c(C(C)(F)F)nn(C[C@]2(C)CCCO2)c1C(=O)Nc1ccnc(S(N)(=O)=O)c1 (single isomer, unassigned) [SC-319a]	100 to 1000 nM
Cc1c(C(C)(F)F)nn(CC2(C)CCCO2)c1C(=O)Nc1ccnc(S(N)(=O)=O)c1 (single isomer, unassigned) [SC-319b]	1000 to 10000 nM
Cc1c(C(C)(F)F)nn(CC2C[C@H]2C(F)F)c1C(=O)Nc1ccnc(S(C)(=O)=O)c1 (stereo in doubt) [SC-207, 3-(1,1-difluoroethyl)-1-((2-(difluoromethyl)cyclopropyl)methyl)-4-methyl-N-(2-(methylsulfonyl)pyridin-4-yl)-1H-pyrazole-5-carboxamide]	100 to 1000 nM
CS(=O)(=O)c1cccc(NC(=O)c2cc(C(F)(F)F)nn2CC2CCCCC2)c1 [SC-01, 1-(cyclohexylmethyl)-N-(3-(methylsulfonyl)phenyl)-3-(trifluoromethyl)-1H-pyrazole-5-carboxamide]	100 to 1000 nM
CS(=O)(=O)c1cccc(NC(=O)c2cc(C(F)(F)F)nn2CC2CCC(F)(F)CC2)c1 [SC-02, 2-[(4,4-difluorocyclohexyl)methyl]-N-(3-methylsulfonylphenyl)-5-(trifluoromethyl)pyrazole-3-carboxamide]	100 to 1000 nM
CS(=O)(=O)c1cccc(NC(=O)c2cc(C(F)(F)F)nn2CC2CCCC2)c1 [SC-03, 2-(cyclopentylmethyl)-N-(3-methylsulfonylphenyl)-5-(trifluoromethyl)pyrazole-3-carboxamide]	100 to 1000 nM
CS(=O)(=O)c1cccc(NC(=O)c2cc(C(F)(F)F)nn2CC2CCOCC2)c1 [SC-04, N-(3-methylsulfonylphenyl)-2-(oxan-4-ylmethyl)-5-(trifluoromethyl)pyrazole-3-carboxamide]	1000 to 10000 nM
CS(=O)(=O)c1cccc(NC(=O)c2c(C(F)(F)F)cnn2CC2CCC(F)(F)CC2)c1 [SC-05, 2-[(4,4-difluorocyclohexyl)methyl]-N-(3-methylsulfonylphenyl)-4-(trifluoromethyl)pyrazole-3-carboxamide]	100 to 1000 nM

Reference: patent US11999699B2, “Substituted pyrazole amides” (GRUENENTHAL GMBH, priority 2021, dated 2024)
